molecular target: T1, oestrogen receptor (ER) (Homo sapiens, UniProt P03372); experiment: Anti-oestrogenic action in MVLN cells (inhibition of estradiol-induced luciferase); format: cell-based; conditions: inhibition of estradiol-induced luciferase signal, value of Ex. 44 is a mean value, read-out: Antioestrogenic action in vitro: MVLN transactivation antagonism IC50
T1 construct: These MVLN cells express, along with the functional oestrogen receptor (ER), a reporter construct; endogenous in cells; host or cells: MVLN cells (MCF7 derivative carrying a luciferase reporter construct)
T1 sequence (P03372 1-595): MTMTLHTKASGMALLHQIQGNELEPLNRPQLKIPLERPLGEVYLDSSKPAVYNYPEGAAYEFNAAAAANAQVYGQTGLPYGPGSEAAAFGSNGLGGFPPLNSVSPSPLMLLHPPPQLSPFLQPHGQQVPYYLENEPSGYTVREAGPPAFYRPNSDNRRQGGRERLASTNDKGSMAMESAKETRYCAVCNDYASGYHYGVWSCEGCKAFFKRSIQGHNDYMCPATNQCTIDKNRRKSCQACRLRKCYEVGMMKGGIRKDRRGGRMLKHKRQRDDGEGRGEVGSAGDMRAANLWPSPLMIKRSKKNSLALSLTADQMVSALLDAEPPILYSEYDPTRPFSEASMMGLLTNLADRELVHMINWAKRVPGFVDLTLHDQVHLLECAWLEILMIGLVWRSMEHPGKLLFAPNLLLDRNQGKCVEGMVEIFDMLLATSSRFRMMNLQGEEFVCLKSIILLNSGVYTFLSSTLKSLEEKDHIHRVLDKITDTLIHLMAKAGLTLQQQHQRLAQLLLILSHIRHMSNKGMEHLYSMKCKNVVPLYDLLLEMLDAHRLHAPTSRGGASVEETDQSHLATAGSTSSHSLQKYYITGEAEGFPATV
Description: The anti-oestrogenic action of the claimed pharmacological compounds was investigated in so-called MVLN cells in vitro. MVLN cells are derivatives of the hormone-responsive MCF7 breast cancer cells known by a person skilled in the art. These MVLN cells express, along with the functional oestrogen receptor (ER), a reporter construct, which under ER-activation expresses luciferase. Determination of the activity of the induced luciferase permits a direct conclusion on the oestrogen properties of substances. To investigate the anti-oestrogenic properties of the pharmacological compounds, they were investigated in the presence of oestrogen for their potential for inhibiting the luciferase signal induced by estradiol. The claimed pharmacological test substances were investigated in MVLN cells for their anti-oestrogenic potential, as described (see Table 2).

Q: `CN(CCCCCCC1=C(c2ccc(F)c(F)c2)CCCc2cc(O)ccc21)CCCS(=O)(=O)CCC(F)(F)C(F)(F)F` [Example 19, 8-(3,4-Difluorophenyl)-9-[6-(methyl{3-[(3,3,4,4,4-pentafluorobutyl)sulphonyl]propyl}amino)hexyl]-6,7-dihydro-5H-benzo[7]annulen-3-ol] was tested. Which IC50 did it give?
A: 62 nM

Q: How did the IC50 turn out when `CN(CCCCCCC1=C(c2ccc(F)cc2)CCCc2c1ccc(O)c2F)CCCS(=O)(=O)CCC(F)(F)F` [Example 37, 4-Fluoro-8-(4-fluorophenyl)-9-[6-(methyl{3-[(3,3,3-trifluoropropyl)sulphonyl]propyl}amino)hexyl]-6,7-dihydro-5H-benzo[7]annulen-3-ol] was run?
A: 53 nM

Q: `COCCCN(CCCCCCC1=C(c2ccc(F)c(F)c2)CCCc2cc(O)ccc21)CCCS(=O)(=O)CCCC(F)(F)C(F)(F)F` [Example 32, 8-(3,4-Difluorophenyl)-9-{6-[(3-methoxypropyl){3-[(4,4,5,5,5-pentafluoropentyl)sulphonyl]propyl}amino]hexyl}-6,7-dihydro-5H-benzo[7]annulen-3-ol] was tested. Which IC50 did it give?
A: 33 nM

Q: `CN(CCCCCCC1=C(c2cc(F)cc(F)c2)CCCc2cc(O)ccc21)CCCS(=O)(=O)CCCCC(F)(F)F` [Example 70, 8-(3,5-Difluorophenyl)-9-[6-(methyl{3-[(5,5,5-trifluoropentyl)sulphonyl]propyl}amino)hexyl]-6,7-dihydro-5H-benzo[7]annulen-3-ol] was tested. Which IC50 did it give?
A: 18 nM

Q: With `CN(CCCCCCC1=C(c2ccc(F)cc2)CCCc2c1ccc(O)c2F)CCCS(=O)(=O)CCCC(F)(F)F` [Example 38, 4-Fluoro-8-(4-fluorophenyl)-9-[6-(methyl{3-[(4,4,4-trifluorobutyl)sulphonyl]propyl}amino)hexyl]-6,7-dihydro-5H-benzo[7]annulen-3-ol] as the molecule, how does the IC50 read?
A: 27 nM

Q: Which IC50 does the source give for `O=S(=O)(CCCN(CCCO)CCCCCCC1=C(c2ccc(F)cc2)CCCc2cc(O)ccc21)CCC(F)(F)F` [Example 57, 8-(4-Fluorophenyl)-9-{6-[(3-hydroxypropyl){3-[(3,3,3-trifluoropropyl)sulphonyl]propyl}amino]hexyl}-6,7-dihydro-5H-benzo[7]annulen-3-ol] here?
A: 111 nM

Q: For `O=S(=O)(CCCCC(F)(F)F)CCCNCCCCCCC1=C(c2ccc(F)cc2)CCCc2cc(O)ccc21` [Example 112, 8-(4-Fluorophenyl)-9-[6-({3-[(5,5,5-trifluoropentyl)sulphonyl]propyl}amino)hexyl]-6,7-dihydro-5H-benzo[7]annulen-3-ol], which IC50 is on record?
A: 7 nM

Q: `CN(CCCCCC1=C(c2ccc(F)cc2)CCCc2cc(O)ccc21)CCCCS(=O)(=O)CCCC(F)(F)F` [Example 49, 8-(4-Fluorophenyl)-9-[5-(methyl{4-[(4,4,4-trifluorobutyl)sulphonyl]butyl}amino)pentyl]-6,7-dihydro-5H-benzo[7]annulen-3-ol] was tested. Which IC50 did it give?
A: 181 nM

Q: Which IC50 does the source give for `CN(CCCCCCC1=C(c2ccc(F)c(F)c2)CCCc2cc(O)ccc21)CCCS(=O)(=O)CCCC(F)(F)C(F)(F)F` [Example 17, 8-(3,4-Difluorophenyl)-9-[6-(methyl{3-[(4,4,5,5,5-pentafluoropentyl)sulphonyl]propyl}amino)hexyl]-6,7-dihydro-5H-benzo[7]annulen-3-ol] here?
A: 46 nM

Q: How did the IC50 turn out when `CN(CCCCCCC1=C(c2cc(F)cc(F)c2)CCCc2cc(O)ccc21)CCC[S+]([O-])CCC(F)(F)F` (stereo not drawn) [Example 5, 8-(3,5-Difluorophenyl)-9-[6-(methyl{3-[(3,3,3-trifluoropropyl)sulphinyl]propyl}amino)hexyl]-6,7-dihydro-5H-benzo[7]annulen-3-ol] was run?
A: 46 nM

Q: `CC(C)(O)CN(CCCCCCC1=C(c2cc(F)cc(F)c2)CCCc2cc(O)ccc21)CCC[S+]([O-])CCCC(F)(F)C(F)(F)F` (stereo not drawn) [Example 12, 8-(3,5-Difluorophenyl)-9-{6-[(2-hydroxy-2-methylpropyl){3-[(4,4,5,5,5-pentafluoropentyl)sulphinyl]propyl}amino]hexyl}-6,7-dihydro-5H-benzo[7]annulen-3-ol] was tested. Which IC50 did it give?
A: 15 nM

Q: With `O=S(=O)(CCCN(CCO)CCCCCCC1=C(c2ccc(F)cc2)CCCc2cc(O)ccc21)CCC(F)(F)F` [Example 56, 8-(4-Fluorophenyl)-9-{6-[(2-hydroxyethyl){3-[(3,3,3-trifluoropropyl)sulphonyl]propyl}amino]hexyl}-6,7-dihydro-5H-benzo[7]annulen-3-ol] as the molecule, how does the IC50 read?
A: 29 nM

Q: `CN(CCCCCCC1=C(c2ccc(F)cc2F)CCCc2cc(O)ccc21)CCCCS(=O)(=O)CCCC(F)(F)C(F)(F)F` [Example 147, 8-(2,4-Difluorophenyl)-9-[6-(methyl{4-[(4,4,5,5,5-pentafluoropentyl)sulphonyl]butyl}amino)hexyl]-6,7-dihydro-5H-benzo[7]annulen-3-ol] was tested. Which IC50 did it give?
A: 32 nM

Q: How did the IC50 turn out when `CN(CCCCCCC1=C(c2cc(F)cc(F)c2)CCCc2cc(O)ccc21)CCCC[S+]([O-])CCCC(F)(F)C(F)(F)F` (stereo not drawn) [Example 4, 8-(3,5-Difluorophenyl)-9-[6-(methyl{4-[(4,4,5,5,5-pentafluoropentyl)sulphinyl]butyl}amino)hexyl]-6,7-dihydro-5H-benzo[7]annulen-3-ol] was run?
A: 6 nM

Q: Which IC50 does the source give for `CN(CCCCCCC1=C(c2ccc(F)c(F)c2)CCCc2cc(O)ccc21)CCC[S+]([O-])CCC(F)(F)F` (stereo not drawn) [Example 21, 8-(3,4-Difluorophenyl)-9-[6-(methyl{3-[(3,3,3-trifluoropropyl)sulphinyl]propyl}amino)hexyl]-6,7-dihydro-5H-benzo[7]annulen-3-ol] here?
A: 48 nM

Q: Which IC50 does the source give for `N#CCN(CCCCCCC1=C(c2ccc(F)cc2)CCCc2cc(O)ccc21)CCCCS(=O)(=O)CCCC(F)(F)F` [Example 90, ({6-[8-(4-Fluorophenyl)-3-hydroxy-6,7-dihydro-5H-benzo[7]annulen-9-yl]hexyl}{4-[(4,4,4-trifluorobutyl)sulphonyl]butyl}amino)acetonitrile] here?
A: 14 nM

Q: For `CN(CCCCCCC1=C(c2ccc(F)cc2F)CCCc2cc(O)ccc21)CCCCS(=O)(=O)CCC(F)(F)F` [Example 131, 8-(2,4-Difluorophenyl)-9-[6-(methyl{4-[(3,3,3-trifluoropropyl)sulphonyl]butyl}amino)hexyl]-6,7-dihydro-5H-benzo[7]annulen-3-ol], which IC50 is on record?
A: 3 nM

Q: Which IC50 does the source give for `CC(C)(C)N(CCCCCCC1=C(c2ccc(F)cc2)CCCc2c1ccc(O)c2F)CCCS(=O)(=O)CCCC(F)(F)C(F)(F)F` [Example 63, 9-[6-(tert-Butyl{3-[(4,4,5,5,5-pentafluoropentyl)sulphonyl]propyl}amino)hexyl]-4-fluoro-8-(4-fluorophenyl)-6,7-dihydro-5H-benzo[7]annulen-3-ol] here?
A: 95 nM

Q: Which IC50 does the source give for `CN(CCCCCCC1=C(c2ccc(F)cc2)CCCc2c1ccc(O)c2F)CCCS(=O)(=O)CCCC(F)(F)F` [Example 149, 4-Fluoro-8-(4-fluorophenyl)-9-[6-(methyl{3-[(4,4,4-trifluorobutyl)sulphonyl]propyl}amino)hexyl]-6,7-dihydro-5H-benzo[7]annulen-3-ol] here?
A: 14 nM

Q: `O=S(=O)(CCCN(CCCCCCC1=C(c2ccc(F)cc2)CCCc2cc(O)ccc21)Cc1ccc(F)cc1)CCCC(F)(F)C(F)(F)F` [Example 58, 9-{6-[(4-Fluorobenzyl){3-[(4,4,5,5,5-pentafluoropentyl)sulphonyl]propyl}amino]hexyl}-8-(4-fluorophenyl)-6,7-dihydro-5H-benzo[7]annulen-3-ol] was tested. Which IC50 did it give?
A: 184 nM

Q: How did the IC50 turn out when `CN(CCCCCCC1=C(c2ccc(F)cc2)CCCc2cc(O)c(F)cc21)CCCCS(=O)(=O)CCC(F)(F)F` [Example 106, 2-Fluoro-8-(4-fluorophenyl)-9-[6-(methyl{4-[(3,3,3-trifluoropropyl)sulphonyl]butyl}amino)hexyl]-6,7-dihydro-5H-benzo[7]annulen-3-ol] was run?
A: 10 nM

Q: How did the IC50 turn out when `CN(CCCCCCC1=C(c2ccc(F)cc2)CCCc2cc(O)ccc21)CCCS(=O)(=O)CCCCC(F)(F)C(F)(F)F` [Example 79, 8-(4-Fluorophenyl)-9-[6-(methyl{3-[(5,5,6,6,6-pentafluorohexyl)sulphonyl]propyl}amino)hexyl]-6,7-dihydro-5H-benzo[7]annulen-3-ol] was run?
A: 17 nM

Q: `O=S(=O)(CCCN(CCO)CCCCCCC1=C(c2ccc(F)cc2)CCCc2cc(O)ccc21)CCCC(F)(F)F` [Example 97, 8-(4-Fluorophenyl)-9-{6-[(2-hydroxyethyl){3-[(4,4,4-trifluorobutyl)sulphonyl]propyl}amino]hexyl}-6,7-dihydro-5H-benzo[7]annulen-3-ol] was tested. Which IC50 did it give?
A: 7 nM

Q: How did the IC50 turn out when `CN(CCCCCCC1=C(c2ccc(F)cc2)CCCc2cc(O)c(F)cc21)CCCS(=O)(=O)CCCCC(F)(F)F` [Example 102, 2-Fluoro-8-(4-fluorophenyl)-9-[6-(methyl{3-[(5,5,5-trifluoropentyl)sulphonyl]propyl}amino)hexyl]-6,7-dihydro-5H-benzo[7]annulen-3-ol] was run?
A: 10 nM

Source: patent US20130252890A1, “6,7-DIHYDRO-5H-BENZO[7]ANNULENE DERIVATIVES, PROCESS FOR PREPARATION THEREOF, PHARMACEUTICAL PREPARATIONS COMPRISING THEM, AND THE USE THEREOF FOR PRODUCTION OF MEDICAMENTS” (BAYER INTELLECTUAL PROPERTY GMBH, priority 2010, published 2013)
